Molecules are shown by their SMILES.

The target in assay [1] is T1, 11βHSD1 (Homo sapiens, UniProt P28845). Put plainly: 11βHSD1 enzyme assay (SPA, 3H-cortisone to 3H-cortisol). Details: An extract of yeast transformed with h-11βHSD1 (Hutt et al., FEBS Lett., 441, 25 (1998)) was used as the source of enzyme; made in house. Format: biochemical. Conditions: extract of yeast transformed with h-11βHSD1; 120 nM 3H-cortisone, 4 mM β-NADPH, 60 min at 30° C. Here is the method: Pharmacological Methods 11βHSD1 Enzyme Assay Materials
T1 sequence (P28845 whole entry): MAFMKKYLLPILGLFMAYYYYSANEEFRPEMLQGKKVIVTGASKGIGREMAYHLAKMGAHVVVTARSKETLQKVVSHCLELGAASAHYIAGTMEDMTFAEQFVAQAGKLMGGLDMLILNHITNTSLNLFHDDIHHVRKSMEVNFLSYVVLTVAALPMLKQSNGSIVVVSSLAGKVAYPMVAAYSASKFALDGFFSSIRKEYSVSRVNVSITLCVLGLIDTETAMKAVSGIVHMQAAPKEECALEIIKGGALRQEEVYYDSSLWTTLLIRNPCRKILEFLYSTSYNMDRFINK
^3H-cortisone and anti-rabbit Ig coated scintillation proximity assay (SPA) beads were purchased from Amersham Pharmacia Biotech, β-NADPH was from Sigma and rabbit anti-cortisol antibodies were from Fitzgerald. An extract of yeast transformed with h-11βHSD1 (Hutt et al., FEBS Lett., 441, 25 (1998)) was used as the source of enzyme. The test compounds were dissolved in DMSO (10 mM). All dilutions were performed in a buffer containing 50 mM TRIS-HCl (Sigma Chemical Co), 4 mM EDTA (Sigma Chemical Co), 0.1% BSA (Sigma Chemical Co), 0.01% Tween-20 (Sigma Chemical Co) and 0.005% bacitracin (Novo Nordisk NS), pH=7.4. Optiplate 96 wells plates were supplied by Packard. The amount of ^3H-cortisol bound to the SPA beads was measured on TopCount NXT, Packard.
h-11βHSD1, 120 nM ^3H-cortisone, 4 mM β-NADPH, antibody (1:200), serial dilutions of test compound and SPA particles (2 mg/well) were added to the wells. The reaction was initiated by mixing the different components and was allowed to proceed under shaking for 60 min at 30° C. The reaction was stopped be the addition of 10 fold excess of a stopping buffer containing 500 μM carbenoxolone and 1 μM cortisone. Data was analysed using GraphPad Prism software.

Assay [2] deals with T1, 11βHSD1. Set-up: host or cells: human volunteers and patients (in vivo). Conditions: lean healthy volunteers and people with type 2 diabetes; cited from earlier work.

With `CCOC(=O)C12CCC(NC(=O)CCCOc3ccc(Cl)cc3Cl)(CC1)CC2` [Example 1-72, 4-[4-(2,4-Dichloro-phenoxy)-butyrylamino]-bicyclo[2.2.2]octane-1-carboxylic acid ethyl ester], on 11βHSD1 [1], the midpoint of inhibition, the IC50, lay at 198 nM.
As for `O=C(CCCOc1ccc(Cl)cc1Cl)NC12CCC(CO)(CC1)CC2` [Example 1-73, 4-(2,4-Dichloro-phenoxy)-N-(4-hydroxy-methyl-bicyclo[2.2.2]oct-1-yl)-butyramide], the IC50 at 11βHSD1 [1] is 1 nM.
`CN(C(=O)CCCOc1ccc(Cl)cc1Cl)C1CCC(C(=O)O)CC1` (stereo not shown) [Example 1-74, 4-{[4-(2,4-Dichloro-phenoxy)-butyryl]-methyl-amino}-cyclo-hexanecarboxylic acid]: half-maximal inhibition at 11βHSD1 [1] (IC50) was put at 809 nM.
At 11βHSD1 [1], `O=C(CCCOc1ccc(Cl)cc1Cl)NC1CCC(CO)CC1` (stereo not shown) [Example 1-75, 4-(2,4-Dichloro-phenoxy)-N-(4-hydroxy-methyl-cyclohexyl)-butyramide] showed an IC50 of 27 nM.
As for `CN(C(=O)CCCOc1ccc(Cl)cc1Cl)C1CCC(C(N)=O)CC1` (stereo not shown) [Example 1-76, 4-{[4-(2,4-Dichloro-phenoxy)-butyryl]-methyl-amino}-cyclo-hexanecarboxylic acid amide], half-maximal inhibition at 11βHSD1 [1] (IC50) required 18 nM.
For `CN(C(=O)CCCOc1ccc(Cl)cc1Cl)C1CCC(C(C)(C)O)CC1` (stereo not shown) [Example 1-78, 4-(2,4-Dichloro-phenoxy)-N-[4-(1-hydroxy-1-methyl-ethyl)-cyclohexyl]-N-methyl-butyramide], it took 23 nM to reach half-maximal inhibition against 11βHSD1 [1] (IC50).
In turn, `CC(C)(O)C1CCC(NC(=O)CCCOc2ccc(Cl)cc2Cl)CC1` (stereo not shown) [Example 1-79, 4-(2,4-Dichloro-phenoxy)-N-[4-(1-hydroxy-1-methyl-ethyl)-cyclohexyl]-butyramide] showed an IC50 at 11βHSD1 [1] of 300 nM.
For `CCOC(=O)C1CC2CC1CC2N(C)C(=O)CCCOc1ccc(Cl)cc1Cl` (stereo not shown) [Example 1-80, 5-{[4-(2,4-Dichloro-phenoxy)-butyryl]-methyl-amino}-bicyclo[2.2.1]heptane-2-carboxylic acid ethyl ester], on 11βHSD1 [1], the IC50 came out at 700 nM.
`CC(C)(O)C12CC3CC(C1)C(NC(=O)CCCOc1ccc(Cl)cc1Cl)C(C3)C2` (stereo not shown) [Example 1-83, 4-(2,4-Dichloro-phenoxy)-N-[5-(1-hydroxy-1-methyl-ethyl)-adamantan-2-yl]-butyramide] registered an IC50 against 11βHSD1 [1] of 9 nM.
`CN(C(=O)CCCOc1ccc(Cl)cc1Cl)C1CC2CC1CC2CO` (stereo not shown) [Example 1-84] returned an IC50 against 11βHSD1 [1] of 30 nM.
The same measure, in the same setting: the figure for `O=C(CCCOc1ccccn1)NC1C2CC3CC1CC(O)(C3)C2` (stereo not shown) [Example 1-87, N-(5-Hydroxy-adamantan-2-yl)-4-(pyridin-2-yloxy)-butyramide] is 227 nM; for `CC(C)(CCOc1ccc(Cl)cc1Cl)C(=O)NC1C2CC3CC1CC(O)(C3)C2` (stereo not shown) [Example 2-1, 4-(2,4-Dichloro-phenoxy)-N-(5-hydroxy-adamantan-2-yl)-2,2-dimethyl-butyramide] it is 2 nM.
Still for that read-out and setting: the figure for `CC(C)(CCOc1ccc(Cl)cc1Cl)C(=O)N1C2CCC1CC(O)C2` (stereo not shown) [Example 2-3, 4-(2,4-Dichloro-phen-oxy)-1-(3-hydroxy-8-aza-bicyclo[3.2.1]oct-8-yl)-2,2-dimethyl-butan-1-one] is 206 nM; for `CC(C)(CCOc1ccc(Cl)cc1Cl)C(=O)NC1C2CC3CC1CC(CO)(C3)C2` (stereo not shown) [Example 2-4, 4-(2,4-Dichloro-phen-oxy)-N-(5-hydroxy-methyl-adamantan-2-yl)-2,2-dimethyl-butyramide] it is 3 nM; for `O=C(NC1C2CC3CC1CC(O)(C3)C2)C1(CCOc2ccc(Cl)cc2Cl)CC1` (stereo not shown) [Example 2-5, 1-[2-(2,4-Dichloro-phen-oxy)-ethyl]-cyclo-pro-panecarboxylic acid (5-hydroxy-adamantan-2-yl)-amide] it is 4 nM.
On to `CC1(C)[C@@H](OC(=O)CCC(=O)O)CC[C@]2(C)[C@H]3C(=O)C=C4[C@@H]5C[C@@](C)(C(=O)O)CC[C@]5(C)CC[C@@]4(C)[C@]3(C)CC[C@@H]12` [carbenoxolone], for which the insulin sensitivity entry at 11βHSD1 [2] was “improves insulin sensitivity”.

For orientation: IC50 means the concentration that gives 50% inhibition. Low values mean higher potency, high ones lower potency.

These data come from patent publication US8383683B2, “Pharmaceutical use of substituted amides” (High Point Pharmaceuticals, LLC, priority 2007, dated 2013).
